Measurements from patent US11939307B2, “Phenylmethyl-piperazine derivatives and antiviral uses thereof” (INSTITUTE OF MEDICINAL BIOTECHNOLOGY, CHINESE ACADEMY OF …, priority 2019, dated 2024).

test system: HCV; assay: Assay of anti-HCV activity in HCV-infected Huh7.5 cells (intracellular HCV RNA by one-step quantitative RT-PCR); assay type: cell-based; details: Hepatitis C virus; compound at 1 μM; Huh7.5 cells infected with HCV; 96 hrs; intracellular HCV RNA vs viral control; read-out: inhibitory activities (inhibitory levels of the compounds against HCV replication)
Protocol: 100 μL Huh7.5 cells were seeded at a density of 1×10^5/mL in a 96-well cell culture plate and incubated in an incubator at 37° C., 5% CO2 and saturated humidity for 6 hrs. Then, while infecting Huh7.5 cells with viral solution containing HCV virus particles, the compounds of the present invention (including all specific compounds listed herein) were added at a concentration of 1 μM, respectively. After continuing incubation for 96 hrs, the total intracellular RNA was extracted separately, and the content of intracellular HCV RNA was measured by one-step quantitative RT-PCR, compared with the RNA level of the viral control, and the inhibition rate of the compounds against HCV was calculated.

Structure (SMILES)	inhibition at 1 µM [%]
CC1CN(c2ccc(Br)c(C(F)(F)F)c2)CCN1Cc1cc(N(C)CCN(C)C)ccc1C(F)(F)F (centres unmarked) [Compound 33, N^1-(3-((4-(4-bromo-3-(trifluoromethyl)phenyl)-2-methylpiperazin-1-yl)methyl)-4-(trifluoromethyl)phenyl)-N^1,N^2,N^2-trimethylethan-1,2-diamine]	> 75
CCCC1CN(c2ccc(C(F)(F)F)cc2)CCN1Cc1cc(N2CCCN(C)CC2)ccc1C(F)(F)F (centres unmarked) [Compound 34, 1-methyl-4-(3-((2-propyl-4-(4-(trifluoromethyl)phenyl)piperazin-1-yl)methyl)-4-(trifluoromethyl)phenyl)-1,4-diazepane]	> 75
CCN1CCCN(c2ccc(C(F)(F)F)c(CN3CCN(c4ccc(C)c(Cl)c4)CC3)c2)CC1 [Compound 35, 1-(3-((4-(3-chloro-4-methylphenyl)piperazin-1-yl)methyl)-4-(trifluoromethyl)phenyl)-4-ethyl-1,4-diazepane]	> 75
CN1CCCN(c2ccc(C(F)(F)F)c(CN3CCN(c4ccc(F)cc4)CC3)c2)CC1 [Compound 36, 1-(3-((4-(4-fluorophenyl)piperazin-1-yl)methyl)-4-(trifluoromethyl)phenyl)-4-methyl-1,4-diazepane]	> 75
CN1CCCN(c2ccc(C(F)(F)F)c(CN3CCN(c4ccc(F)c(Cl)c4)CC3)c2)CC1 [Compound 37, 1-(3-((4-(3-chloro-4-fluorophenyl)piperazin-1-yl)methyl)-4-(trifluoromethyl)phenyl)-4-methyl-1,4-diazepane]	> 75
CN(CCN1CCCC1)c1ccc(C(F)(F)F)c(CN2CCC(c3ccc(Cl)cc3)CC2)c1 [Compound 39, 3-((4-(4-chlorophenyl)piperidin-1-yl)methyl)-N-methyl-N-(2-(pyrrolidin-1)ethyl)-4-(trifluoromethyl)aniline]	> 75
Cc1cc(N2CCN(Cc3cc(N4CCCN(C)CC4)ccc3C(F)(F)F)CC2)ccc1Cl [Compound 40, 1-(3-((4-(4-chloro-3-methylphenyl)piperazin-1-yl)methyl)-4-(trifluoromethyl)phenyl)-4-methyl-1,4-diazepane]	> 75
CN(C)CCN(C)c1ccc(C(F)(F)F)c(CN2CCN(c3ccc(Cl)c(F)c3)CC2)c1 [Compound 41, N^1-(3-((4-(4-chloro-3-fluorophenyl)piperazin-1-yl)methyl)-4-(trifluoromethyl)phenyl)-N^1,N^2,N^2-trimethylethan-1,2-diamine]	> 75
CN(C)CCN(C)c1ccc(C(F)(F)F)c(CN2CCC(c3ccc(Cl)c(Cl)c3)CC2)c1 [Compound 42, N^1-(3-((4-(3,4-dichlorophenyl)piperidin-1-yl)methyl)-4-(trifluoromethyl)phenyl)-N^1,N^2,N^2-trimethylethan-1,2-diamine]	> 75
Cc1cc(C2CCN(Cc3cc(N4CCCN(C)CC4)ccc3C(F)(F)F)CC2)ccc1Cl [Compound 43, 1-(3-((4-(4-chloro-3-methylphenyl)piperidin-1-yl)methyl)-4-(trifluoromethyl)phenyl)-4-methyl-1,4-diazepane]	> 75
CN1CCCN(c2ccc(C(F)(F)F)c(CN3CCN(C(c4ccc(F)cc4)c4ccc(F)cc4)CC3)c2)CC1 [Compound 44, 1-(3-((4-(bis(4-fluorophenyl)methyl)piperazin-1-yl)methyl)-4-(trifluoromethyl)phenyl)-4-methyl-1,4-diazepane]	> 75
Cc1ccc(C(c2ccc(C)cc2)N2CCN(Cc3cc(N4CCCN(C)CC4)ccc3C(F)(F)F)CC2)cc1 [Compound 45, 1-(3-((4-(bis(4-methylphenyl)methyl)piperazin-1-yl)methyl)-4-(trifluoromethyl)phenyl)-4-methyl-1,4-diazepane]	> 75
CN1CCCN(c2ccc(C(F)(F)F)c(CN3CCN(C(c4ccc(Cl)cc4)c4ccc(Cl)cc4)CC3)c2)CC1 [Compound 46, 1-(3-((4-(bis(4-chlorophenyl)methyl)piperazin-1-yl)methyl)-4-(trifluoromethyl)phenyl)-4-methyl-1,4-diazepane]	> 75
CN1CCCN(c2ccc(C(F)(F)F)c(CN3CCN(C(c4ccc(Br)cc4)c4ccc(Br)cc4)CC3)c2)CC1 [Compound 47, 1-(3-((4-(bis(4-bromophenyl)methyl)piperazin-1-yl)methyl)-4-(trifluoromethyl)phenyl)-4-methyl-1,4-diazepane]	> 75
CC(C)c1ccc(C(c2ccc(C(C)C)cc2)N2CCN(Cc3cc(N4CCCN(C)CC4)ccc3C(F)(F)F)CC2)cc1 [Compound 48, 1-(3-((4-(bis(4-isopropylphenyl)methyl)piperazin-1-yl)methyl)-4-(trifluoromethyl)phenyl)-4-methyl-1,4-diazepane]	> 75
CN(C)CCN(C)c1ccc(C(F)(F)F)c(CN2CCN(C(c3ccc(C4CC4)cc3)c3ccc(C4CC4)cc3)CC2)c1 [Compound 49, N^1-(3-((4-(bis(4-cyclopropylphenyl)methyl)piperazin-1-yl)methyl)-4-(trifluoromethyl)phenyl)-N^1,N^2,N^2-trimethylethan-1,2-diamine]	> 75
CN(CCN1CCC1)c1ccc(C(F)(F)F)c(CN2CCN(C(c3ccc(Cl)cc3)c3ccc(Cl)cc3)CC2)c1 [Compound 50, N-(2-(azetidin-1-yl)ethyl)-3-((4-(bis(4-chlorophenyl)methyl)piperazin-1-yl)methyl)-N-methyl-4-(trifluoromethyl)aniline]	50 to 75
CN1CCCN(c2ccc(C(F)(F)F)c(CN3CCN(C(c4ccccc4)c4ccc(F)cc4)CC3)c2)CC1 (centres unmarked) [Compound 51, 1-(3-((4-((4-fluorophenyl)(phenyl)methyl)piperazin-1-yl)methyl)-4-(trifluoromethyl)phenyl)-4-methyl-1,4-diazepane]	> 75
CN(C)CCN(C)c1ccc(C(F)(F)F)c(CN2CCN(C(c3ccc(Cl)cc3)c3ccc(Cl)cc3)CC2)c1 [Compound 52, N^1-(3-((4-(bis(4-chlorophenyl)methyl)piperazin-1-yl)methyl)-4-(trifluoromethyl)phenyl)-N^1,N^2,N^2-trimethylethan-1,2-diamine]	> 75
CN(C)CCN(C)c1ccc(C(F)(F)F)c(CN2CCN(C(c3ccc(C(F)(F)F)cc3)c3ccc(C(F)(F)F)cc3)CC2)c1 [Compound 53, N^1-(3-((4-(bis(4-(trifluoromethyl)phenyl)methyl)piperazin-1-yl)methyl)-4-(trifluoromethyl)phenyl)-N^1,N^2,N^2-trimethylethan-1,2-diamine]	> 75
CN(C)CCN(C)c1ccc(C(F)(F)F)c(CN2CCN(C(c3ccccc3)c3ccc(Cl)cc3)CC2)c1 (centres unmarked) [Compound 54, N^1-(3-((4-((4-chlorophenyl)(phenyl)methyl)piperazin-1-yl)methyl)-4-(trifluoromethyl)phenyl)-N^1,N^2,N^2-trimethylethan-1,2-diamine]	> 75
CN1CCN(c2ccc(C(F)(F)F)c(CN3CCN(C(c4ccc(Cl)cc4)c4ccc(Cl)cc4)CC3)c2)CC1 [Compound 55, 1-(bis(4-chlorophenyl)methyl)-4-(5-(4-methylpiperazin-1-yl)-2-(trifluoromethyl)benzyl)piperazine]	> 75
CN1CCCN(c2ccc(C(F)(F)F)c(CN3CCN(C(c4ccc(Cl)cc4)c4ccccn4)CC3)c2)CC1 (centres unmarked) [Compound 56, 1-(3-((4-((4-chlorophenyl)(pyridin-2-yl)methyl)piperazin-1-yl)methyl)-4-(trifluoromethyl)phenyl)-4-methyl-1,4-diazepane]	50 to 75
CN1CCCN(c2ccc(C(F)(F)F)c(CN3CCN(C(c4ccccc4)c4ccccn4)CC3)c2)CC1 (centres unmarked) [Compound 57, 1-methyl-4-(3-((4-(phenyl(pyridin-2-yl)methyl)piperazin-1-yl)methyl)-4-(trifluoromethyl)phenyl)-1,4-diazepane]	50 to 75
COc1ccc(C(c2ccc(OC)cc2)N2CCN(Cc3cc(N(C)CCN(C)C)ccc3C(F)(F)F)CC2)cc1 [Compound 58, N^1-(3-((4-(bis(4-methoxyphenyl)methyl)piperazin-1-yl)methyl)-4-(trifluoromethyl)phenyl)-N^1,N^2,N^2-trimethylethan-1,2-diamine]	> 75
CCCN(CCN(C)C)c1ccc(C(F)(F)F)c(CN2CCN(C(c3ccc(Cl)cc3)c3ccc(Cl)cc3)CC2)c1 [Compound 59, N^1-(3-((4-(bis(4-chlorophenyl)methyl)piperazin-1-yl)methyl)-4-(trifluoromethyl)phenyl)-N^2,N^2-dimethyl-N^1-propylethan-1,2-diamine]	> 75
CC1CN(C(c2ccc(F)cc2)c2ccc(F)cc2)CCN1Cc1cc(N2CCCN(C)CC2)ccc1C(F)(F)F (centres unmarked) [Compound 60, 1-(3-((4-(bis(4-fluorophenyl)methyl)-2-methylpiperazin-1-yl)methyl)-4-(trifluoromethyl)phenyl)-4-methyl-1,4-diazepane]	> 75
CC1CN(C(c2ccc(Cl)cc2)c2ccc(Cl)cc2)CCN1Cc1cc(N2CCCN(C)CC2)ccc1C(F)(F)F (centres unmarked) [Compound 61, 1-(3-((4-(bis(4-chlorophenyl)methyl)-2-methylpiperazin-1-yl)methyl)-4-(trifluoromethyl)phenyl)-4-methyl-1,4-diazepane]	> 75
CN(CC1CCCN1C)c1ccc(C(F)(F)F)c(CN2CCN(C(c3ccc(Cl)cc3)c3ccc(Cl)cc3)CC2)c1 (centres unmarked) [Compound 62, 3-((4-(bis(4-chlorophenyl)methyl)piperazin-1-yl)methyl)-N-methyl-N-((1-methylpyrrolidin-2-yl)methyl)-4-(trifluoromethyl)aniline]	> 75
